Patent publication US20100209934A1, “METHOD OF IDENTIFYING AGENTS WHICH MODULATE THE ACTIVITY OF CALCIUM-ACTIVATED CHLORIDE CHANNEL” (SNU R&DB FOUNDATION, priority 2007, published 2010)

Key:
[1] = test system: mouse ANO1; assay: Whole-cell current recording in mouse ANO1 stable HEK cell line; type: cell-based; conditions: 500 nM ionomycin, mANO1 stable HEK cell line
Experimental: A stable cell line (HEK cells) that constitutively over-expresses mANO1 is constructed for high throughput screening analysis. In order to test whether the HEK cell line elicits ANO1 currents, ionomycin was applied. Application of ionomycin evoked a robust inward Cl^− currents in a whole cell. Pipette and bath solutions contained 140 mM NMDG-Cl.
HEK293 cells were transfected with pEGFP-N-1-mANO1 using Lipofectamine (Invitrogen Corp., Carlsbad, Calif.). After selection in 800 μg/ml geneticin (Invitrogen Corp., Carlsbad, Calif.) for 15 days, single colonies were picked with cloning cylinders and tested for activity of ANO1.
To detect active compounds from chemical libraries or other sources of chemicals, a stable cell line, that constitutively expresses mouse ANO1, was constructed in accordance with the method of Reference Example 7. To construct a stable cell line, mouse ANO1 DNA was incorporated to the genomic DNA of human embryonic kidney (HEK) cells.
This confirms that ANO1 is constitutively expressed in the stable cell line.

[2] = target: T1, mANO1 (Mus musculus, UniProt Q8BHY3, S527P); assay: Two-electrode voltage clamp currents in Xenopus oocytes injected with mANO1 complementary RNA; type: cell-based; parameters: expressed in transfected cells; host or cells: Xenopus laevis oocytes (cRNA injection); conditions: ionomycin 4 μM; mANO1 expressing oocytes
T1 sequence (Q8BHY3 1-960 S527P): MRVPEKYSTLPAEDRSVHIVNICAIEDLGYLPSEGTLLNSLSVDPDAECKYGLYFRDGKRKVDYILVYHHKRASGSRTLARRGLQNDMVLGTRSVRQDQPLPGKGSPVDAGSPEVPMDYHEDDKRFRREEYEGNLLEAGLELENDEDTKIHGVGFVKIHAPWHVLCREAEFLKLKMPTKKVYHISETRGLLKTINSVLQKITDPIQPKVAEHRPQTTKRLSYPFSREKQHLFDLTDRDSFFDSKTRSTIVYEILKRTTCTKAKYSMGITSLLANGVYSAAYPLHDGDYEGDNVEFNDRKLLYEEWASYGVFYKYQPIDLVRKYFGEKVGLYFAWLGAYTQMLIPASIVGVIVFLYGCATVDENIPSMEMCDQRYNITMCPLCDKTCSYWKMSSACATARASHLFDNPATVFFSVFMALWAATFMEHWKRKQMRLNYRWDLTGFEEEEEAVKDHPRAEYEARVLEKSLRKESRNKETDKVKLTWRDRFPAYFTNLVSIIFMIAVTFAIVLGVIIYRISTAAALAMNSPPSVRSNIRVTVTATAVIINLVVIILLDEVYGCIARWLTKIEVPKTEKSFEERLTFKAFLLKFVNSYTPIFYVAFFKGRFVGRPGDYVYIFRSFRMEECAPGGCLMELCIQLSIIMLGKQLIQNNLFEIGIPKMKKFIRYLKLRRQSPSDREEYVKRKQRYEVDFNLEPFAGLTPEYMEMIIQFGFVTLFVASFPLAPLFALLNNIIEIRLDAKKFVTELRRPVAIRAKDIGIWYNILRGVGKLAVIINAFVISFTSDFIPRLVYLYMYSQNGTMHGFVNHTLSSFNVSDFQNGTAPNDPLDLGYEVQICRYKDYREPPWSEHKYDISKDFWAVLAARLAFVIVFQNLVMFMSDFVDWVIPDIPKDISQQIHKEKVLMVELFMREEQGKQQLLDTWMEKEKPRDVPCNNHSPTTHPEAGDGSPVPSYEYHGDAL
Experimental: pSDTF-mANO1 obtained in Reference Example 1 was linearized using BamHI. Complementary RNA was transcribed with SP6 RNA polymerase (mMESSAGE mMACHINE® SP6 Kit, Ambion, Austin, Tex.). After being defolliculated with collagenase (Type IA, Sigma), Xenopus laevis oocytes were injected with 50 ng of the complementary RNAs of mANO1 in 50 nl of diethylpyrocarbonate-treated water. Two to five days after the injection, whole cell currents were recorded using the two-electrode voltage clamp technique. The bath solution contained 96 mM NaCl, 1 mM MgCl2, 5 mM HEPES, 2 mM KCl and 1.8 mM CaCl2 at pH 7.5 and was perfused at 2 ml/min. Experiments were performed at room temperature.
Xenopus oocytes provide a recognized model for endogenous CaCC studies because they express endogenous CaCCs that are required for ‘fertilization depolarization’ (Hartzell, H. C. et al., Mol Pharmacol 51, 683-92 (1997)). Furthermore, the biophysical and pharmacological properties of Xenopus CaCCs are similar to those of mammalian CaCCs (Machaca, K. et al., Calcium-Activated Chloride Channels (ed. Fuller, C. M.) (Academic Press, Amsterdam, 2002)). Accordingly, the present inventors expressed mANO1 in Xenopus oocytes and tested its activation by receptor stimulation using 1 μM LPA (lysophosphatidic acid). CaCCs in Xenopus are known to be activated by LPA (Guo, Z. et al., Proc Natl Acad Sci USA. 93, 14367-72 (1996); and Kim, M. J. et al., Biochem Pharmacol. 59, 241-7 (2000)). […] Moreover, LPA-induced ANO1 currents were outwardly-rectifying, like those of native CaCCs in Xenopus oocytes (Machaca, K. et al., supra) (FIG. 4C). The reversal potential was 37.7±1.05 mV (n=5), which is close to the equilibrium potential of Cl^− in Xenopus oocytes (Weber, W., Biochim Biophys Acta 1421, 213-33 (1999)).
Indeed, LPA (1 μM) applied to oocytes expressing mANO1 induced a large inward current.
Further, pretreatment of 1 μM thapsigargin blocked the IP3-induced current in a mANO1-expressing oocyte (FIGS. 10C and 10D).
LPA-induced ANO1 currents were blocked by Cl^− channel blockers. The Cl^− channel blockers were applied 10˜20 min before the LPA application. […] This blockade of agonist-induced ANO1 currents by DIDS, niflumic acid, or NPPB were also observed in mammalian cells transfected with mANO1.

C[C@H](CCC(=O)O)C[C@H](C)C[C@H](C)C(=O)/C=C(\O)[C@H](C)C[C@H](C)C/C=C/[C@@H](C)[C@@H](O)[C@@H](C)[C@@H](O)C[C@@H]1CC[C@@](C)([C@H]2CC[C@@](C)([C@@H](C)O)O2)O1 [ionomycin]
inward current evoked by ionomycin [1]: robust inward current
activation of mANO1 by Ca2+ ionophore [2]: Activation
